Experimental data taken from article PMC8348142, “Antimicrobial Peptide Modifications against Clinically Isolated Antibiotic-Resistant Salmonella” (Molecules, 2021).
Marks after values point to notes of the source that are not given here. Ends that are not written are not given here.

Experiments:
Type in all cases: cell-based
sheep red blood cells = experiment: Hemolytic activity assay; settings: for percent hemolysis: 2% sRBCs in PBS, 37 °C, 1 h, OD540, triplicate mean
Protocol: The peptide toxicity to the mammalian system was screened based on the hemolytic test by measuring the hemoglobin released from ruptured red blood cells (RBCs). In this study, sheep RBCs (sRBCs) were employed. They were thrice washed and prepared as a suspension in phosphate-buffered saline (PBS, Oxoid). A suspension of 2% sRBCs was incubated with 2-fold serial dilutions of peptide (final concentrations; 256 to 1 µM in a total volume of 200 µL) at 37 °C for 1 h. The solutions of 0.1% (final concentration) Triton X-100 (Sigma-Aldrich) and PBS containing the peptide solvent were used instead of the peptides as the controls of hemolysis at 100% and 0%, respectively. Thereafter, the post-incubated suspensions were centrifuged (1000× g, 3 min) to pelletize residual sRBCs. The supernatants were then transferred into a flat-bottom PS 96-well plate and were measured the absorbance at 540 nm (OD540) by a microplate reader. The test was conducted in triplicate and the mean OD540 was used to calculate the hemolysis (%) as; ((OD540 (peptide) − OD540 (PBS + peptide solvent))/(OD540 (0.1% Triton X-100) − OD540 (PBS + peptide solvent))) × 100. The hemolytic concentration 50 (HC50), a concentration inducing 50% hemolysis, was determined.
The GraphPad Prism version 7.00 (GraphPad Software, La Jolla, CA, USA) was applied for all statistical analyses and data visualizations. Replicate quantitative results were calculated and shown as mean ± SD, unless otherwise specified. The HC50 values were determined using nonlinear regression analysis. The paired t-test and repeated measures one-way ANOVA with Tukey’s multiple comparison test were applied to compare between 2 groups and among 3 or more groups, respectively. The comparisons were considered as a statistically significant difference when a p-value < 0.05.

[1] = tested on: clinical Salmonella isolates; experiment: MBC, drop plate method, and MBC/MIC mode of action; settings: for MBC: drop plate on MHA from MIC plate, 37 °C, 18 h, thrice
Protocol: (§1) All 12 isolates of Salmonella used in this study were clinical isolates and anonymous left-overs from laboratory diagnoses. They were maintained in a 20% glycerol (Sigma-Aldrich) stock at −80 °C and further cultured on Mueller-Hinton agar (MHA, Oxoid, Hampshire, UK) at 37 °C for 18 h to obtain single colonies for antimicrobial assays. This study was approved by the Ethics Committee of the Faculty of Tropical Medicine (Mahidol University, Bangkok, Thailand; MUTM-EXMPT 2017-007).
The plate derived from the MIC assay was immediately tested for the MBC using a drop plate method. A volume of 10 µL of the culture from individual wells at MIC, 2MIC, and 4MIC was dropped on MHA plates. […] The experiment was thrice performed.
In order to determine whether the peptides have bacteriostatic or bactericidal activity, a ratio of MBC to MIC (MBC/MIC) was applied. The ratio >4 was indicative of bacteriostatic peptide, and ≤4 was inferred as bactericidal peptide.

[2] = tested on: clinical Salmonella isolates; experiment: MIC, broth microdilution; settings: MHB, 5 × 10^5 CFU/mL, 37 °C, 18 h, duplicate
Protocol: as §1
MIC was determined using the broth microdilution method described by Hancock with some modifications. Briefly, bacterial colonies grown from the MHA were prepared in MHB (Oxoid) as a 0.5 McFarland suspension (which is equal to 1 × 10^8 CFU/mL), and was further 200-fold diluted by the MHB (5 × 10^5 CFU/mL). The bacterial suspension (50 µL) was mixed with 2-fold serial dilutions of peptide (5.5 µL) achieving final concentrations of 256 to 1 µM using a round-bottom polypropylene (PP) 96-well plate (Greiner Bio-One). The plate was incubated at 37 °C for 18 h including incubating peptide free-bacteria as positive growth control, and MHB as negative growth control. After the incubation, the lowest concentration with no visible growth was defined as a MIC value. The assay was performed in a duplicate manner.

## FFFIRRIARLLRRIF-NH2 [2F-Kn2-5R-NH2]
Sheep red blood cells; concentration inducing 50% hemolysis of sRBCs, nonlinear regression, unit (µM)
  HC50 (hemolytic concentration 50): 5.60 µM
Sheep red blood cells; peptide 1 µM
  percent hemolysis: 6.1%
Sheep red blood cells; peptide 2 µM
  percent hemolysis: 15%
Sheep red blood cells; peptide 4 µM
  percent hemolysis: 33.7 * %
Sheep red blood cells; peptide 8 µM
  percent hemolysis: 61.6 * %
Sheep red blood cells; peptide 16 µM
  percent hemolysis: 96.2%
Sheep red blood cells; peptide 32 µM
  percent hemolysis: 97.6%
Sheep red blood cells; peptide 64 µM
  percent hemolysis: 97.9%
Sheep red blood cells; peptide 128 µM
  percent hemolysis: 99.8%
Sheep red blood cells; peptide 256 µM
  percent hemolysis: 100%
Sheep red blood cells; sRBCs, 60 min, 256–1 µM tested
  concentration required for the initiation of hemolysis: 1000 nM
[1]; geometric mean over 12 clinical Salmonella isolates
  GM of MBC: 5.66 µM
[1]; isolate 5 (Enteritidis)
  MBC: 4 µM
[1]; isolate 7 (Typhimurium)
  MBC: 4 µM
[1]; isolate 11 (I 1,4:i:-)
  MBC: 4 µM
[1]; isolate 18 (Stanley)
  MBC: 8 µM
[1]; isolate 26 (Typhimurium)
  MBC: 8 µM
[1]; isolate 27 (Typhimurium)
  MBC: 8 µM
[1]; isolate 55 (Typhimurium)
  MBC: 8 µM
[1]; isolate 61 (Enteritidis)
  MBC: 4 µM
[1]; isolate 69 (Typhimurium)
  MBC: 4 µM
[1]; isolate 76 (Enteritidis)
  MBC: 8 µM
[1]; isolate 78 (Enteritidis)
  MBC: 8 µM
[1]; isolate 107 (Typhimurium)
  MBC: 4 µM
[2]; isolate 5 (Enteritidis, blood; resistant AMP, SXT, KZ)
  MIC: 4 µM
[2]; isolate 7 (Typhimurium, blood; resistant AMP, CN, TE, NA, SXT)
  MIC: 4 µM
[2]; isolate 11 (I 1,4:i:-, blood; resistant AMP, TE, NA, SXT, C)
  MIC: 4 µM
[2]; isolate 18 (Stanley, urine; resistant TE, SXT, C)
  MIC: 8 µM
[2]; isolate 26 (Typhimurium, urine; resistant TZP, TE, NA)
  MIC: 8 µM
[2]; isolate 27 (Typhimurium, stool; resistant AMP, TE, NA, SXT, CIP)
  MIC: 8 µM
[2]; isolate 55 (Typhimurium, blood; resistant AMP, SXT, C, TE)
  MIC: 8 µM
[2]; isolate 61 (Enteritidis, blood; resistant AMP, TE, NA, SXT)
  MIC: 4 µM
[2]; isolate 69 (Typhimurium, stool; resistant AMP)
  MIC: 4 µM
[2]; isolate 76 (Enteritidis, CSF; resistant NA)
  MIC: 8 µM
[2]; isolate 78 (Enteritidis, blood; resistant TE, CIP, NA, SXT)
  MIC: 8 µM
[2]; isolate 107 (Typhimurium, stool; susceptible)
  MIC: 4 µM
